Where “and” joins values, the source holds several entries; their conditions need not be identical. Equal values may be shown once.
Molecular target: T1, ERBB4/ERBB4 (Homo sapiens, UniProt Q15303)
T1 construct: host or cells: U2OS (osteosarcoma cells), PathHunter engineered line
Test: PathHunter U2OS ERBB4/ERBB4 dimerization assay, 96-well dose-response
Type: cell-based
Settings: for ERBB4/ERBB4 dimerization signal: relative to signal with 0.1 µM NRG1, single biological replicates
Protocol: PathHunter U2OS ERBB4/ERBB4 (osteosarcoma cells; Eurofins, 93-0961C3), U2OS ERBB2/ERBB4 (osteosarcoma cells; Eurofins, 493-0960C3), ERBB2/ERBB3 (osteosarcoma cells; Eurofins, 93-1042C3) and ERBB1/ERBB1 (osteosarcoma cells; Eurofins, 93-0989C3) dimerization cell lines were cultured according to the manufacturer’s instructions. Briefly, cells were cultured in Cell Culture Reagent 103 (Eurofins, 92-3103 G) supplemented with 250 µg/mL Hygromycin B (Eurofins, 92-0029) and 500 µg/mL G418 (Eurofins, 92-0030), and were maintained at 37 °C in humidified atmosphere of 5% CO2. HCFs (Innoprot, P10454) were cultured in fibroblast medium (Innoprot, P60108) supplemented with 10% (v/v) fetal bovine serum (FBS, Innoprot), 10% (v/v) fibroblast growth supplement (Innoprot), and 1% (v/v) penicillin/streptomycin solution (Innoprot). iAMs[33] (kindly provided by LUMC) were cultured in Advanced DMEM F-12 (Thermo Fisher Scientific, 12634028) supplemented with 2% (v/v) heat-inactivated FBS (Thermo Fisher Scientific, 10270106), 1% (v/v) penicillin/streptomycin (10,000 units/mL and 10 mg/mL respectively, Thermo Fisher Scientific, 15140122), 1× GlutaMAX (Thermo Fisher Scientific, 35050061), and 100 ng/mL doxycycline (Tocris, 4090) for proliferation. To induce differentiation, iAMs were transferred to medium without doxycycline.
U2OS ERBB4/ERBB4 dimerization cells were seeded at a density of 5 × 10^4 cells/well in 100 µL Cell Plating 0 Reagent, in white 96-well plates (PerkinElmer, 6005680) and incubated for 24 h at 37 °C, 5% CO2. […] Next, 110 µL PathHunter Flash Detection Reagent was added to each well and incubated at RT for 1 h after which the luminescence signal was measured using the Luminoskan Ascent (Thermo Fisher Scientific). […] The same experimental set-up was used for the U2OS ERBB2/ERBB4, U2OS ERBB2/ERBB3 and U2OS ERBB1/ERBB1 dimerization cell lines.
Category Parameter Description
Assay Type of assay PathHunter Dimerization assays provide a robust, highly sensitive and easy-to-use cell-based functional assay to study various protein activities in a cell. The assay s use
Enzyme Fragment Complementation technology, where the b-galactosidase (b-gal) enzyme is split into two fragments, ProLink and Enzyme Acceptor. Independently these fragments have no b-gal activity. However, when forced to complement through protein-protein interactions, they form an active b-gal enzyme. The PathHunter Dimerization assay detects ligand induced dimerization of two subunits of a receptor-dimer pair. The cells have been engineered to co-express one receptor subunit (ERBB4) fused to Enzyme
Donor, and a second dimer partner (ERBB4) fused to Enzyme Acceptor. Binding of an agonist to one receptor subunit induces it to interact with its dimer partner, forcing complementation of the two enzyme […]
functional enzyme that hydrolyzes a substrate to generate a chemiluminescent signal.
Target ErbB4 receptor (RTK receptor)
Primary measurement Detection of chemiluminescent signal, induced by small-molecule ErbB4 agonists
Key reagents PathHunter Dimerization ErbB4/ErbB4 Cell
Line (93-0961C3) - PathHunter Flash
Detection Kit (03 -0247) - AssayComplete Cell
AssayComplete Cell Detachment Reagent
(92-0009) - AssayComplete Thawing Reagent
T3 (92-4103TR) - AssayComplete Freezing
Assay protocol https://www.discoverx.com/catalog/pathhun

T1 sequence (Q15303 26-1308): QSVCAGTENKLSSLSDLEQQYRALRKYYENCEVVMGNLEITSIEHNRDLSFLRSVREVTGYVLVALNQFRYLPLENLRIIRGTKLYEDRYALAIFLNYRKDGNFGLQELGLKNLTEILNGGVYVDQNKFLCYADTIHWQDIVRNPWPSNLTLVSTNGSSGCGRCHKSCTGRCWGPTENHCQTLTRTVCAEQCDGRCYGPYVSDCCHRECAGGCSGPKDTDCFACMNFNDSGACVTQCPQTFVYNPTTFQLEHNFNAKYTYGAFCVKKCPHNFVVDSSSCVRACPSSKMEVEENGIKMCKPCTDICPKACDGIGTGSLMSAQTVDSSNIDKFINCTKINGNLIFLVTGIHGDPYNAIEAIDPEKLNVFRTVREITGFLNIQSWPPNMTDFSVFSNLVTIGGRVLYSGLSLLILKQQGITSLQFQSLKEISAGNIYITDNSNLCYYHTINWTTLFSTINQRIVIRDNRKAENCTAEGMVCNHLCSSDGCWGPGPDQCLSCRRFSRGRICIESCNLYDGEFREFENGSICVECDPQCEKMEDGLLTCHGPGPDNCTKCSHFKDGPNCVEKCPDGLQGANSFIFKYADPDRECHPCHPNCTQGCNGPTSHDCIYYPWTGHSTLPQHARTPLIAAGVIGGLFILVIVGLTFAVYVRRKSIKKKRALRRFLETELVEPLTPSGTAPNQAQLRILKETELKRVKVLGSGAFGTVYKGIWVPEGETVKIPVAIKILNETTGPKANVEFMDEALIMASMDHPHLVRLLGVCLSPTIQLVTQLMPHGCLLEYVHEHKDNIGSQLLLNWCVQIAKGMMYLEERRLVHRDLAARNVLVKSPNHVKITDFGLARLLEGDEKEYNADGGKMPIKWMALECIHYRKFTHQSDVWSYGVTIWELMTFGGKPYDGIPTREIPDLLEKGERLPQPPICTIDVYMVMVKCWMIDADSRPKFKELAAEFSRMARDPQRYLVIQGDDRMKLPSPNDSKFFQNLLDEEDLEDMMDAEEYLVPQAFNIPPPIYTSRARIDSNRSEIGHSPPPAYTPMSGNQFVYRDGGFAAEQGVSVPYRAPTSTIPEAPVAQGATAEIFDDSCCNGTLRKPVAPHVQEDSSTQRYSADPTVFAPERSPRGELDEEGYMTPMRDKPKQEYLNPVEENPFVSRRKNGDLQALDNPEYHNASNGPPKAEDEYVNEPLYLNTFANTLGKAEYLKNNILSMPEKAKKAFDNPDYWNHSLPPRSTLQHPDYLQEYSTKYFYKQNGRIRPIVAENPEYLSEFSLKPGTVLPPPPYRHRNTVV
T1 sequence (Q15303 26-1308): as above

| Compound | ERBB4/ERBB4 dimerization signal (3.125e-8 M) | ERBB4/ERBB4 dimerization signal (6.25e-8 M) | ERBB4/ERBB4 dimerization signal (1.25e-7 M) | ERBB4/ERBB4 dimerization signal (2.5e-7 M) | ERBB4/ERBB4 dimerization signal (5e-7 M) | ERBB4/ERBB4 dimerization signal (1e-6 M) | ERBB4/ERBB4 dimerization signal (2e-6 M) | ERBB4/ERBB4 dimerization signal (4e-6 M) | ERBB4/ERBB4 dimerization signal (8e-6 M) | ERBB4/ERBB4 dimerization signal (1.6e-5 M) | ERBB4/ERBB4 dimerization signal (3.2e-5 M) | Emax, maximum response relative to NRG1 (% of the effect of NRG1) | induction of ERBB4 dimerization (in words) |
| --- | --- | --- | --- | --- | --- | --- | --- | --- | --- | --- | --- | --- | --- |
| O=C(NC1CC1)C(Sc1nc2ccccc2c(=O)n1C1CCCC1)c1ccccc1 (stereo not shown) [EF-1] | 0 | -1.6 and -0.07 and 2.169 and 1.573 | -0.55 and -0.15 and 2.599 and 0.9551 | -1.94 and 0.74 and 2.315 and -0.7582 | -0.55 and 0.26 and 2.323 and -0.4275 | -2 and 0.47 and 4.362 and -0.05827 | 1.2 and 2.97 and 7.682 and 3.162 | 7.41 and 5.76 and 13.8923 and 7.932 | 16.72 and 8.19 and 23.4633 and 9.465 | 24.8 and 17.62 and 27.6207 and 19.8392 | 30.57 and 22.84 and 33.2287 and 25.0905 | 27.9 ± 4.8% |  |
| Cc1sc2nc(SC(C)C(=O)NCc3ccc4c(c3)OCO4)n(-c3ccccc3)c(=O)c2c1C (stereo not shown) [NA-1] | 0 |  | -1.9 and -5.83 |  | -1.92 and -5.07 |  | -1.85 and -3.89 |  | -1.52 and -5.16 |  | -1.83 and -4.37 |  | did not activate ERBB4 |
